Columns and labels:
[1] = biological target: 5-hydroxytryptamine receptor 2A (Homo sapiens) (UniProt P28223); experiment: Inhibition of 5HT2A receptor at 0.5 uM
[2] = biological target: T1, 5-hydroxytryptamine receptor 2C (Homo sapiens) (UniProt P28335); experiment: Inhibition of 5HT2C receptor at 0.5 uM
T1 sequence (whole entry): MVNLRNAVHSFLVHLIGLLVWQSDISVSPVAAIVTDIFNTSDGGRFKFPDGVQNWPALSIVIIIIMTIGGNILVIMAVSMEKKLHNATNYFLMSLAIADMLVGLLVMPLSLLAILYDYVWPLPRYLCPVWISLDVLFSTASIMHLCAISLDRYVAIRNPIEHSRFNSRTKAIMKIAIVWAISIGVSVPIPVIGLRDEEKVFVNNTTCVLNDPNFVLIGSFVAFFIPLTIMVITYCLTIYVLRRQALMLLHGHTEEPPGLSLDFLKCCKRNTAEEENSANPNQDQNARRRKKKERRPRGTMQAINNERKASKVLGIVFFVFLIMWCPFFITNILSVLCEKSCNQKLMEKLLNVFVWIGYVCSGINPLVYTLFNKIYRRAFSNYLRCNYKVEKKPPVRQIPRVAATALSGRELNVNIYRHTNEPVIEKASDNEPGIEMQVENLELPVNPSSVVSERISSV

[3] = biological target: Histamine H1 receptor (Homo sapiens) (UniProt P35367); experiment: Inhibition of histamine H1 receptor at 0.5 uM
Chain of Histamine H1 receptor (Homo sapiens) (P35367 whole entry): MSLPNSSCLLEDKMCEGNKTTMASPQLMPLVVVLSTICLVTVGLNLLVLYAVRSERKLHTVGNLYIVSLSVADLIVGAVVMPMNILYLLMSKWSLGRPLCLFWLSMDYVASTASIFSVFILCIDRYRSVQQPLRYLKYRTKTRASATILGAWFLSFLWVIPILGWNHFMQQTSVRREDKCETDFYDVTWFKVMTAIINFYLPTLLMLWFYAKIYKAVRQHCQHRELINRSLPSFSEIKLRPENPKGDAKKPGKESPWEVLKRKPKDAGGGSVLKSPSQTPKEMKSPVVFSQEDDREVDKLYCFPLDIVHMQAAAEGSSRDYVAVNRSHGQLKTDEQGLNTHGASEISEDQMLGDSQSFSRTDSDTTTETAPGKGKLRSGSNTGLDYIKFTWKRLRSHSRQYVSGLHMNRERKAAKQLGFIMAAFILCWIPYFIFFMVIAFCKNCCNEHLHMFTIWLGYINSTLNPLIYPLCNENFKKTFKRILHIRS

[4] = biological target: Sodium-dependent noradrenaline transporter (Homo sapiens) (UniProt P23975); experiment: Inhibition of NET at 0.5 uM
Chain of Sodium-dependent noradrenaline transporter (Homo sapiens) (P23975 whole entry): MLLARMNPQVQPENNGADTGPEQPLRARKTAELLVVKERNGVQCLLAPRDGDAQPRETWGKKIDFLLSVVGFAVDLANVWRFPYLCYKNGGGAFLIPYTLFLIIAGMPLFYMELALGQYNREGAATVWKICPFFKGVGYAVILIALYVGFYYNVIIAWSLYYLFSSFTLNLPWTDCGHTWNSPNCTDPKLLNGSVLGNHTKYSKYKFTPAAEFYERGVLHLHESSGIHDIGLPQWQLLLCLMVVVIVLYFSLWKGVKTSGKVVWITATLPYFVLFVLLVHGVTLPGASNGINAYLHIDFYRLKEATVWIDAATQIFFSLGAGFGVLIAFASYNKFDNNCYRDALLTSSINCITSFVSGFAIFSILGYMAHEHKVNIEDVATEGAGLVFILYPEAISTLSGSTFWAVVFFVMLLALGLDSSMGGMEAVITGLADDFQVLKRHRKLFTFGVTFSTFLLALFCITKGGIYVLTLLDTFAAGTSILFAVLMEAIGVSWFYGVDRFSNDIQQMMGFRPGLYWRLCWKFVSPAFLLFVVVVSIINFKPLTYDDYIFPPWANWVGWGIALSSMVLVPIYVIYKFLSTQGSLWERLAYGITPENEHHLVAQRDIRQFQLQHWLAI

[5] = biological target: T2, Muscarinic acetylcholine receptor M1 (Homo sapiens) (UniProt P11229); experiment: Binding affinity to human muscarinic M1 receptor expressed in CHO cells co-expressing pCRE-Luc gene assessed as modulation of acetylcholine-induced intracellular cAMP level at 0.5 uM after 5 hrs by luciferase based luminescence assay; format: cell-based
T2 sequence (whole entry): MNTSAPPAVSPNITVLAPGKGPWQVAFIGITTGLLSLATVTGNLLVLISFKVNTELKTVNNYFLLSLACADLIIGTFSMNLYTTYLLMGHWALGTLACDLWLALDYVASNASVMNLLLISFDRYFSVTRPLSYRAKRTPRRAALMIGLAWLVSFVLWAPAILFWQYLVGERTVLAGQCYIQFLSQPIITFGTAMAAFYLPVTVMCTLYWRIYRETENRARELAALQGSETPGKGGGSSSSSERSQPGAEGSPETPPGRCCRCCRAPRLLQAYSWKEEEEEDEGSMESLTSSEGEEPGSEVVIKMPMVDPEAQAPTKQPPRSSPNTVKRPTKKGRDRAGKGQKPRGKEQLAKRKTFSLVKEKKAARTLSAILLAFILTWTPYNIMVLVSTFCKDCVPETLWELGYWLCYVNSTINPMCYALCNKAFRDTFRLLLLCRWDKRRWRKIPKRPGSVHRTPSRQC

[6] = biological target: 5-hydroxytryptamine receptor 4 (Homo sapiens) (UniProt Q13639); experiment: Binding affinity to human recombinant 5HT4 receptor expressed in CHO cells co-expressing pCRE-Luc gene assessed as modulation of serotonin-induced intracellular cAMP level at 0.5 uM after 5 hrs by luciferase based luminescence assay; format: cell-based
Chain of 5-hydroxytryptamine receptor 4 (Homo sapiens) (Q13639 whole entry): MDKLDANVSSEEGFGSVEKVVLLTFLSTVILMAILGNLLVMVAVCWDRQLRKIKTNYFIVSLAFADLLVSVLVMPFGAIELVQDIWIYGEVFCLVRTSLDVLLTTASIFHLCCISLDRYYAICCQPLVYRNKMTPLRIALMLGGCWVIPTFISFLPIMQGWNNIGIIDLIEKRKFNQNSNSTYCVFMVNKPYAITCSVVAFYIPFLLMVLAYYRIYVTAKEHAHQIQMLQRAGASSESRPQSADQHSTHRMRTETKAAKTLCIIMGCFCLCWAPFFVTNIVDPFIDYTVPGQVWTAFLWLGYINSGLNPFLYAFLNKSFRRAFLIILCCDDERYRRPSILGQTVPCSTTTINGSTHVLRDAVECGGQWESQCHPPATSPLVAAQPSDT

[7] = biological target: 5-hydroxytryptamine receptor 6 (Homo sapiens) (UniProt P50406); experiment: Binding affinity to human recombinant 5HT6 receptor expressed in CHO cells co-expressing pCRE-Luc gene assessed as modulation of serotonin-induced intracellular cAMP level after 4 hrs by luciferase based luminescence assay; format: cell-based
Chain of 5-hydroxytryptamine receptor 6 (Homo sapiens) (P50406 whole entry): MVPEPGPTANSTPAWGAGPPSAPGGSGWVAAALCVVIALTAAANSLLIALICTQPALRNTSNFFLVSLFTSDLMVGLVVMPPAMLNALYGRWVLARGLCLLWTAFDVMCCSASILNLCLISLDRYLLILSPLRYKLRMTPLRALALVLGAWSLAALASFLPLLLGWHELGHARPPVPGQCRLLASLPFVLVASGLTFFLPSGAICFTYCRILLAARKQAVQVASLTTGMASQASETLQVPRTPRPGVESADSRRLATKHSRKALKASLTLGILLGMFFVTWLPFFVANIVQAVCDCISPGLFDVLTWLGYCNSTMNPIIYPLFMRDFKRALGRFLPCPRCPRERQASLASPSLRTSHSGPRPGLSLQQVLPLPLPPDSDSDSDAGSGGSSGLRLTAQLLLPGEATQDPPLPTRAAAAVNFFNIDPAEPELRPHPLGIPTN

[8] = biological target: D(2) dopamine receptor (Homo sapiens) (UniProt P14416); experiment: Inhibition of dopamine D2 receptor at 0.5 uM
Chain of D(2) dopamine receptor (Homo sapiens) (P14416 whole entry): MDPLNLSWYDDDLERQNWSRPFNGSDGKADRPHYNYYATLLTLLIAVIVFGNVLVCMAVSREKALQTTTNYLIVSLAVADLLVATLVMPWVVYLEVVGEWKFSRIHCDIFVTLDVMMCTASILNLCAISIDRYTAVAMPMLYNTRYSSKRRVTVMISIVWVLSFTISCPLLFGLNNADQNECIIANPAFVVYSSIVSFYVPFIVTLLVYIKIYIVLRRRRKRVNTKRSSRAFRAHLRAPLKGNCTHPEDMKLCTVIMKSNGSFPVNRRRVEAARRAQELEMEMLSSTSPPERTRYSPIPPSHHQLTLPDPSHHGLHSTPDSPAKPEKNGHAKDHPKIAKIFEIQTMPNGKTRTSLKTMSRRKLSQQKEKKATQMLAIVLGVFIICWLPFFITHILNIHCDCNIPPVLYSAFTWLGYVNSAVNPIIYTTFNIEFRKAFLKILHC

[9] = biological target: Sodium-dependent serotonin transporter (Homo sapiens) (UniProt P31645); experiment: Inhibition of SERT at 0.5 uM
Chain of Sodium-dependent serotonin transporter (Homo sapiens) (P31645 whole entry, looked up): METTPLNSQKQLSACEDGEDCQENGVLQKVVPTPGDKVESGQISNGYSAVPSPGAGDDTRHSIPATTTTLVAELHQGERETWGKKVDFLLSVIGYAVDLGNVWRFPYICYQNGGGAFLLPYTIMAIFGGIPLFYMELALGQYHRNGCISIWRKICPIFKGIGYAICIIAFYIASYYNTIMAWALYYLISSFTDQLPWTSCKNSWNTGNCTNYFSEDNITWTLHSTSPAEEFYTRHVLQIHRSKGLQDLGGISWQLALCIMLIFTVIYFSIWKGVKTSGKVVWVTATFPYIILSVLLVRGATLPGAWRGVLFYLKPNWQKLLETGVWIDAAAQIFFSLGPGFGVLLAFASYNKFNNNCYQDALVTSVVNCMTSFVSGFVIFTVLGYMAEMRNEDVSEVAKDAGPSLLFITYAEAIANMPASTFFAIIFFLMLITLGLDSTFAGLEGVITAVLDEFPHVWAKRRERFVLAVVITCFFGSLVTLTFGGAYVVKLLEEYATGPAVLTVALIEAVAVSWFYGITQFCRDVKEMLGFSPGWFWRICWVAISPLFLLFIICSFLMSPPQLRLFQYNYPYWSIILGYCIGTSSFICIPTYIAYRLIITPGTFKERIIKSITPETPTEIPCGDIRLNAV

[10] = biological target: 5-hydroxytryptamine receptor 7 (Rattus norvegicus) (UniProt P32305); experiment: Binding affinity to rat 5HT7 receptor expressed in CHO cells co-expressing pCRE-Luc gene assessed as modulation of serotonin-induced intracellular cAMP level at 0.5 uM after 5 hrs by luciferase based luminescence assay; format: cell-based
Chain of 5-hydroxytryptamine receptor 7 (Rattus norvegicus) (P32305 whole entry): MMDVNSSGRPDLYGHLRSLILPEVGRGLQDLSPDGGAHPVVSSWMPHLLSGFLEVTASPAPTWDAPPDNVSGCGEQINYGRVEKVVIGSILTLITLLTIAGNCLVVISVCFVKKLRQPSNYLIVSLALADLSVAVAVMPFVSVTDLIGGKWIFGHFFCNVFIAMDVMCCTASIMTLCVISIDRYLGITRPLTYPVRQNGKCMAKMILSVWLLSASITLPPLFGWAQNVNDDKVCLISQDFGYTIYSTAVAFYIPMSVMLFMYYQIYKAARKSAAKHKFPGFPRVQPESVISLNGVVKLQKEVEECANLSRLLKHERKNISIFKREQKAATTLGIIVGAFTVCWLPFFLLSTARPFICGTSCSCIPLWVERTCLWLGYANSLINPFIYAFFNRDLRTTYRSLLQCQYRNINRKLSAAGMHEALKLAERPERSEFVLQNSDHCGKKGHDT

[11] = biological target: Sodium-dependent dopamine transporter (Homo sapiens) (UniProt Q01959); experiment: Inhibition of DAT at 0.5 uM
Chain of Sodium-dependent dopamine transporter (Homo sapiens) (Q01959 whole entry): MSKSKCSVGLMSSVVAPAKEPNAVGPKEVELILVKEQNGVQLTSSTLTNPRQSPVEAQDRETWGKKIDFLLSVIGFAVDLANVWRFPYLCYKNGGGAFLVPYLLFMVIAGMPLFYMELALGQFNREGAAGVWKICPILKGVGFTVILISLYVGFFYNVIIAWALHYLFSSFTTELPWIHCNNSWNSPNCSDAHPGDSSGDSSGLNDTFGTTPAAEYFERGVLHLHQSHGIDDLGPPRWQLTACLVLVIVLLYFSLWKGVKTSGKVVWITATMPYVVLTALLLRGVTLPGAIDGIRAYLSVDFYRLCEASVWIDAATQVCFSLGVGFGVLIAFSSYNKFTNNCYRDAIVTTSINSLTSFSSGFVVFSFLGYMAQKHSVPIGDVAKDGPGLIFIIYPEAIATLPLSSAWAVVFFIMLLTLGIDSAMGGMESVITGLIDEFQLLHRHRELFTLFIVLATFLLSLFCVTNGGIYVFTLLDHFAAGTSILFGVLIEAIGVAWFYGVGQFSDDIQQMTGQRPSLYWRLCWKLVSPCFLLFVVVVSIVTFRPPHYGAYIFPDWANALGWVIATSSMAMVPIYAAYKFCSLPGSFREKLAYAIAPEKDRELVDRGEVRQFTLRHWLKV

[12] = biological target: T3, Alpha-1B adrenergic receptor (Homo sapiens) (UniProt P35368); experiment: Inhibition of adrenergic alpha1b receptor at 0.5 uM
T3 sequence (whole entry): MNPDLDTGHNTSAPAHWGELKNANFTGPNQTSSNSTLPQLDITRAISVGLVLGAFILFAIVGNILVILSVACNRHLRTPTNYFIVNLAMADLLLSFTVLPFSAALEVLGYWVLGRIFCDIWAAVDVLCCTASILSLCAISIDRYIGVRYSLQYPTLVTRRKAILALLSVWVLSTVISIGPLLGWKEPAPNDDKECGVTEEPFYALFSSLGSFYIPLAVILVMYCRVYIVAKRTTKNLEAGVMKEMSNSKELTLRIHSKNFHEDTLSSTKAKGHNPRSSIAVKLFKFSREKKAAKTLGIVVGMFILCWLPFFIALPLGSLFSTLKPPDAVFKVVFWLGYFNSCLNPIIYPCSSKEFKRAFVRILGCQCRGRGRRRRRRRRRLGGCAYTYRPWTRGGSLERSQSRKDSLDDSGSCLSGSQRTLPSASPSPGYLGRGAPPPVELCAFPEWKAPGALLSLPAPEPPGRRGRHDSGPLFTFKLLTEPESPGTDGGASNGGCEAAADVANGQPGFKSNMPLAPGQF

Chain of 5-hydroxytryptamine receptor 2A (Homo sapiens) (P28223 whole entry): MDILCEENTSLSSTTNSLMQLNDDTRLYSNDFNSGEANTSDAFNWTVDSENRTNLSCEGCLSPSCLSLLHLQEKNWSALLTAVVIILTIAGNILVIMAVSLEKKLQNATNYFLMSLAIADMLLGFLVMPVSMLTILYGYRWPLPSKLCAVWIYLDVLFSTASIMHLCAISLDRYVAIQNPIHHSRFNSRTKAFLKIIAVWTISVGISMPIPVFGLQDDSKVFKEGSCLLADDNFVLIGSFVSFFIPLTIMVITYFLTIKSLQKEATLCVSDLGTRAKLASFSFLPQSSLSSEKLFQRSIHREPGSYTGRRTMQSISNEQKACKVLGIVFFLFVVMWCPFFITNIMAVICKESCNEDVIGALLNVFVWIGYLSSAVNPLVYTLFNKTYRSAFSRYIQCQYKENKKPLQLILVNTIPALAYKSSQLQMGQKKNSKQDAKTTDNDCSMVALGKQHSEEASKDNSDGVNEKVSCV

## CN1CC(Cl)=C(c2cn(S(=O)(=O)c3ccc(F)cc3)c3ccccc23)C1
[1]
  inhibition: < 50%
[2]
  inhibition: < 50%
[3]
  inhibition: < 50%
[4]
  inhibition: < 50%
[5]
  inhibition: < 50%
[6]
  inhibition: < 50%
[7]
  Kb: 0.6 nM
[8]
  inhibition: < 50%
[9]
  inhibition: < 50%
[10]
  inhibition: < 50%
[11]
  inhibition: < 50%
[12]
  inhibition: < 50%

## CCOc1ccc2c(c1)c(C1=C(Cl)CN(C)C1)cn2S(=O)(=O)c1ccc(Br)cc1
[7]
  Kb: 4.45 nM

## CN1CC(Cl)=C(c2cn(S(=O)(=O)c3ccc(Br)cc3)c3ccccc23)C1
[1]
  inhibition: < 50%
[2]
  inhibition: < 50%
[3]
  inhibition: < 50%
[4]
  inhibition: < 50%
[5]
  inhibition: < 50%
[6]
  inhibition: < 50%
[7]
  Kb: 0.35 nM
[8]
  inhibition: < 50%
[9]
  inhibition: < 50%
[10]
  inhibition: < 50%
[11]
  inhibition: < 50%
[12]
  inhibition: < 50%

## CCN1CC(Cl)=C(c2cn(S(=O)(=O)c3cccc(Cl)c3)c3ccccc23)C1
[7]
  Kb: 12.5 nM

## CCN1CC(Cl)=C(c2cn(S(=O)(=O)c3ccccc3Br)c3ccc(OC)cc23)C1
[7]
  Kb: 6.15 nM

## COc1ccc2c(c1)c(C1CCN(C)C1)cn2S(=O)(=O)c1ccc(C(C)C)cc1 (racemic)
[7]
  Kb: 0.1 nM

## CCOc1ccc2c(c1)c(C1=C(Cl)CN(CC)C1)cn2S(=O)(=O)c1ccccc1Br
[7]
  Kb: 0.45 nM

## COc1ccc2c(c1)c(C1=C(Cl)CN(C)C1)cn2S(=O)(=O)c1ccc(F)cc1
[7]
  Kb: 0.63 nM

## CCN1CC(Cl)=C(c2cn(S(=O)(=O)c3ccc(F)cc3)c3ccccc23)C1
[7]
  Kb: 5.8 nM

## CCOc1ccc2c(c1)c(C1=C(Cl)CN(C)C1)cn2S(=O)(=O)c1ccc(F)cc1
[7]
  Kb: 6.16 nM

## CCN1CC(Cl)=C(c2cn(S(=O)(=O)c3cccc(Cl)c3)c3ccc(F)cc23)C1
[7]
  Kb: 6.15 nM

## COc1ccc2c(c1)c(C1=C(Cl)CN(C)C1)cn2S(=O)(=O)c1cc(Cl)c(Cl)cc1Cl
[7]
  Kb: 18.4 nM

## CCN1CC(Cl)=C(c2cn(S(=O)(=O)c3ccccc3)c3ccc(OC)cc23)C1
[7]
  Kb: 0.7 nM

## CN1CC(Cl)=C(c2cn(S(=O)(=O)c3ccccc3Br)c3ccc(F)cc23)C1
[7]
  Kb: 0.25 nM

## CCN1CC(Cl)=C(c2cn(S(=O)(=O)c3ccc(Br)cc3)c3ccc(OC)cc23)C1
[7]
  Kb: 4.75 nM

## CN1CCC(c2cn(S(=O)(=O)c3ccccc3)c3ccccc23)C1 (racemic)
[7]
  Kb: 1.52 nM

## CCN1CC(Cl)=C(c2cn(S(=O)(=O)c3ccc(F)cc3)c3ccc(OC)cc23)C1
[7]
  Kb: 8.7 nM

## CCOc1ccc2c(c1)c(C1=C(Cl)CN(C)C1)cn2S(=O)(=O)c1ccccc1
[7]
  Kb: 1 nM

## COc1ccc2c(c1)c(C1=C(Cl)CN(C)C1)cn2S(=O)(=O)c1ccccc1Br
[1]
  inhibition: < 50%
[2]
  inhibition: < 50%
[3]
  inhibition: < 50%
[4]
  inhibition: < 50%
[5]
  inhibition: < 50%
[6]
  inhibition: < 50%
[7]
  Kb: 0.3 nM
[8]
  inhibition: < 50%
[9]
  inhibition: < 50%
[10]
  inhibition: < 50%
[11]
  inhibition: < 50%
[12]
  inhibition: < 50%

## CCN1CC(Cl)=C(c2cn(S(=O)(=O)c3cccc(Cl)c3)c3ccc(OC)cc23)C1
[7]
  Kb: 2.4 nM

## CCN1CCC(c2cn(S(=O)(=O)c3ccccc3Br)c3ccccc23)C1 (racemic)
[7]
  Kb: 0.1 nM
